Where a name gives a salt, the structure may show the parent alone.
Biological target: T1, GPR6 receptor (Homo sapiens, UniProt P46095)
T1 construct: expressed in transfected cells
Test: Inhibition of cAMP Activity of GPR6 In Vitro Assay (CHO-K1 cells, HTRF cAMP)
Type: cell-based
Conditions: compounds of Compound Table 1; inhibition of constitutive cAMP activity of GPR6 expressed in CHO-K1 cells; approximate IC50; read-out: IC50
Description: Inhibition of cAMP Activity of GPR6 In Vitro Assay
This cell based assay measures the ability of compounds to inhibit the constitutive cAMP activity of GPR6 receptor expressed in CHO-K1 cells. CHO cells were stably expressed with GPR6 receptor, whose expression is controlled by a tetracycline inducable element. The cells were cultured in medium containing F12K, 10% FBS, 1% Penn/Strep, 200 ug/mL Hygromycin. GPR6 receptor expression was induced for 20 hrs with 1 μg/ml doxycycline (sigma D9891) in growth media. After addition of doxycycline cells were plated at a density of 250-500 cells per well in half-volume black clear bottom plates (Costar) and place in an incubator (37°, 5% C(O)2) for 20 hours prior to cAMP assays.
Culture media was removed from cells and they were washed with 50 μL of Ringer's Buffer (MgCl2 0.047 mg/mL, NaH2PO4 0.18 mg/mL, Na2HPO4 0.1 mg/mL, KCl 0.34 mg/mL, NaHC(O)3 1.26 mg/mL, D-glucose 1.8 mg/mL, NaCl 7 mg/mL; pH=7.4). Compounds suspended in DMSO were diluted in Ringer's Buffer containing 0.5% fatty acid free BSA and incubated on cells for 45 min at […] and 5% C(O)2. After incubation cells were incubated for 10 min at room temp with Eu-cAMP tracer solution from a Perkin Elmer Lance HTRF UltracAMP assay kit (TRF0264). Then ULight™-anti-cAMP solution from the Lance HTRF kit was added and incubated on a shaker at room temp for 1 hour prior to HTRF detection in a BMG PolarStar Omega.
IC50 curves were generated with a four-parameter logistic equation using GraphPad Prism 5.03.

T1 sequence (P46095 whole entry): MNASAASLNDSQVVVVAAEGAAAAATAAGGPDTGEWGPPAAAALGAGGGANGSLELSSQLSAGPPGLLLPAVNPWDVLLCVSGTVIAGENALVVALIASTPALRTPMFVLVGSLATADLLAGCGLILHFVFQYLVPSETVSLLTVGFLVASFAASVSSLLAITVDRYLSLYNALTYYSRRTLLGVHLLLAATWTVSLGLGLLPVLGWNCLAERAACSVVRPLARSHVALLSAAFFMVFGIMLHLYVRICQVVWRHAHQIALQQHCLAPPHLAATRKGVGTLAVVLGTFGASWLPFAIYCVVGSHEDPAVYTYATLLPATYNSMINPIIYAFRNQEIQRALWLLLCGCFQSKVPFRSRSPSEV

First: (S)-2-(cyclopropylamino)-3-(4-((2,4-difluorophenyl)fluoromethyl)piperidin-1-yl)-N,N-dimethylpyrido[3,4-b]pyrazine-7-carboxamide, 2,2,2-trifluoroacetic acid salt [Cpd 577]
Second: O=C(c1ccsc1Cl)C1CCN(c2nc3cnccc3nc2NC2CC2)CC1 [Cpd 572, (2-chlorothiophen-3-yl)(1-(2-(cyclopropylamino)pyrido[3,4-b]pyrazin-3-yl)piperidin-4-yl)methanone, hydrogen chloride salt]
The IC50 of the first is 230-fold higher: 4.9 µM for the first, 0.021 µM for the second. The second is the more potent here.

Compared with “N-cyclopropyl-3-(4-(pyridin-4-yloxy)piperidin-1-yl)pyrido[3,4-b]pyridin-2-amine [Cpd 554]”, “N2-cyclopropyl-3-(4-(2-fluoro-4-methoxyphenoxy)piperidin-1-yl)-N5,N5-dimethylpyrido[3,4-b]pyrazine-2,5-diamine, 2,2,2-trifluoroacetic acid salt [Cpd 607]” is 4.4-fold lower in IC50: 0.19 µM for the first, 0.043 µM for the second.

Compared with “3-(1-(7-bromo-2-(cyclopropylamino)pyrido[3,4-b]pyrazin-3-yl)piperidine-4-carbonyl)-4-fluorobenzonitrile [Cpd 602]”, “2-(cyclopropylamino)-3-(4-(m-tolylsulfonyl)piperazin-1-yl)quinoxaline-6-carbonitrile [Cpd 239]” is 32-fold higher in IC50: 0.146 µM for the first, 4.74 µM for the second.

First: COc1ccc(C(=O)N2CCN(c3nc4ccccc4nc3NC3CC3)CC2)cc1Cl [Cpd 9, (3-chloro-4-methoxyphenyl)(4-(3-(cyclopropylamino)quinoxalin-2-yl)piperazin-1-yl)methanone, 2,2,2-trifluoroacetic acid salt]
Second: 3-(4-(3-chloro-4-fluorobenzyl)piperazin-1-yl)-N-cyclopropylpyrido[3,4-b]pyrazin-2-amine, 2,2,2-trifluoroacetic acid salt [Cpd 315]
The IC50 of the first is 200-fold higher: 10.1 µM for the first, 0.05 µM for the second. The second is the more potent here.

Compared with “3-(4-((5-chloro-2-fluorophenyl)difluoromethyl)piperidin-1-yl)-N-cyclopropyl-5-methylpyrido[3,4-b]pyrazin-2-amine [Cpd 536]”, “3-(4-(2-fluoro-4-methoxybenzyl)piperidin-1-yl)-N-isopropylpyrazino[2,3-d]pyridazin-2-amine, 2,2,2-trifluoroacetic acid salt [Cpd 642]” is 17-fold lower in IC50: 0.93 µM for the first, 0.054 µM for the second. The second is the more potent here.

Compared with “N-cyclopropyl-3-(4-(4-(methylthio)phenoxy)piperidin-1-yl)pyrido[3,4-b]pyrazin-2-amine, 2,2,2-trifluoroacetic acid salt [Cpd 600]”, “azetidin-1-yl(2-(cyclopropylamino)-3-(4-(2-fluoro-4-methoxyphenoxy)piperidin-1-yl)pyrido[3,4-b]pyrazin-5-yl)methanone, 2,2,2-trifluoroacetic acid salt [Cpd 610]” is 78-fold higher in IC50: 0.02 µM for the first, 1.57 µM for the second. The first is the more potent here.

Compared with “2-((2,2-difluoroethyl)amino)-3-(4-(2,4-difluorophenoxy)piperidin-1-yl)-N,N-dimethylpyrido[3,4-b]pyrazine-7-carboxamide, 2,2,2-trifluoroacetic acid salt [Cpd 649]”, “N-cyclopropyl-3-(4-(2,4-difluorophenoxy)piperidin-1-yl)-5-methylpyrido[3,4-b]pyrazin-2-amine, 2,2,2-trifluoroacetic acid salt [Cpd 494]” is 22-fold lower in IC50: 0.044 µM for the first, 0.002 µM for the second.

First: N-cyclopropyl-3-(4-((4-fluorophenyl)sulfonyl)piperidin-1-yl)-7-methylpyrido[3,4-b]pyrazin-2-amine 2,2,2-trifluoroacetate [Cpd 654]
Second: 2-(cyclopropylamino)-3-(4-((4-(trifluoromethoxy)phenyl)sulfonyl)piperazin-1-yl)quinoxaline-6-carbonitrile, 2,2,2-trifluoroacetic acid salt [Cpd 283]
The IC50 of the first is 14-fold lower: 0.03 µM for the first, 0.42 µM for the second. The first is the more potent here.

Going from `Cc1cc(C)c2nc(N3CCN(Cc4cc(Cl)ccc4Cl)CC3)c(NC3CC3)nc2c1` [Cpd 103, N-cyclopropyl-3-(4-(2,5-dichlorobenzyl)piperazin-1-yl)-5,7-dimethylquinoxalin-2-amine] to “N-cyclopropyl-3-(4-(2,4-difluorobenzyl)piperidin-1-yl)-6-fluoroquinoxalin-2-amine, 2,2,2-trifluoroacetic acid salt [Cpd 479]”, the IC50 falls from 5.31 µM to 0.14 µM (38-fold). The second is the more potent here.

First: 3-(4-(2,5-dichlorobenzyl)piperazin-1-yl)-N-(pyrimidin-4-yl)quinoxalin-2-amine, 2,2,2-trifluoroacetic acid salt [Cpd 174]
Second: (4-(2-(cyclopropylamino)pyrido[3,4-b]pyrazin-3-yl)piperazin-1-yl)(4-(difluoromethyl)phenyl)methanone, 2,2,2-trifluoroacetic acid salt [Cpd 289]
The IC50 of the first is 6.2-fold higher: 1.67 µM for the first, 0.27 µM for the second.

Compared with “2-(cyclopropylamino)-3-(4-((2-fluorophenyl)sulfonyl)piperazin-1-yl)quinoxaline-6-carbonitrile, 2,2,2-trifluoroacetic acid salt [Cpd 241]”, “3-(4-((3-chloro-5-fluoro-2-methylphenyl)sulfonyl)piperazin-1-yl)-2-(cyclopropylamino)quinoxaline-6-carbonitrile, 2,2,2-trifluoroacetic acid salt [Cpd 282]” is 6.6-fold higher in IC50: 0.65 µM for the first, 4.29 µM for the second. The first is the more potent here.

First: 2-(cyclopropylamino)-3-(4-((2,5-dichlorophenyl)sulfonyl)piperazin-1-yl)quinoxaline-6-carbonitrile [Cpd 226]
Second: Clc1ccc(Cl)c(CN2CCN(c3nc4ccccc4nc3NCC3CC3)CC2)c1 [Cpd 42, N-(cyclopropylmethyl)-3-(4-(2,5-dichlorobenzyl)piperazin-1-yl)quinoxalin-2-amine, 2,2,2-trifluoroacetic acid salt]
The IC50 of the first is 5.5-fold lower: 0.57 µM for the first, 3.16 µM for the second. The first is the more potent here.

Going from “4-chloro-3-(1-(7-chloro-2-(cyclopropylamino)pyrido[3,4-b]pyrazin-3-yl)piperidine-4-carbonyl)benzonitrile [Cpd 595]” to “3-(4-(2-fluoro-4-methoxyphenoxy)piperidin-1-yl)-2-(isopropylamino)pyrido[3,4-b]pyrazine-7-carbonitrile, 2,2,2-trifluoroacetic acid salt [Cpd 628]”, the IC50 falls from 0.478 µM to 0.276 µM (1.7-fold).

Compared with `Fc1ccc(F)c(CN2CCN(c3nc4ccccc4nc3NC3CC3)CC2)c1` [Cpd 81, N-cyclopropyl-3-(4-(2,5-difluorobenzyl)piperazin-1-yl)quinoxalin-2-amine, 2,2,2-trifluoroacetic acid salt], “3-(4-(2,4-difluorophenoxy)piperidin-1-yl)-N-(2-methoxyethyl)pyrido[3,4-b]pyrazin-2-amine, 2,2,2-trifluoroacetic acid salt [Cpd 525]” is 160-fold lower in IC50: 4.58 µM for the first, 0.029 µM for the second. The second is the more potent here.

Compared with “3-(4-(4-chloro-3-methylbenzyl)piperazin-1-yl)-N-cyclopropylquinoxalin-2-amine, 2,2,2-trifluoroacetic acid salt [Cpd 194]”, “N-cyclopropyl-3-(4-(2,4-difluorobenzyl)piperidin-1-yl)-5-methylpyrido[3,4-b]pyrazin-2-amine, 2,2,2-trifluoroacetic acid salt [Cpd 493]” is 400-fold lower in IC50: 3.64 µM for the first, 0.009 µM for the second. The second is the more potent here.

Compared with “3-(4-(5-(tert-butyl)-2-methoxybenzyl)piperazin-1-yl)-N-cyclopropylpyrido[3,4-b]pyrazin-2-amine, 2,2,2-trifluoroacetic acid salt [Cpd 306]”, “3-(4-(3-chlorophenoxy)piperidin-1-yl)-N-cyclopropylpyrido[3,4-b]pyrazin-2-amine, 2,2,2-trifluoroacetic acid salt [Cpd 426]” is 14-fold lower in IC50: 0.38 µM for the first, 0.027 µM for the second. The second is the more potent here.

Going from “(1-(2-(cyclopropylamino)pyrido[3,4-b]pyrazin-3-yl)piperidin-4-yl)(2,4,6-trifluorophenyl)methanone, 2,2,2-trifluoroacetic acid salt [Cpd 444]” to “N-cyclopropyl-3-(4-(4-methoxyphenoxy)piperidin-1-yl)pyrido[3,4-b]pyrazin-2-amine [Cpd 552]”, the IC50 falls from 0.2 µM to 0.024 µM (8.3-fold). The second is the more potent here.

“(S)-3-(cyclopropylamino)-2-(4-((2,4-difluorophenyl)fluoromethyl)piperidin-1-yl)quinoxaline-6-carbonitrile [Cpd 509]” and “8-chloro-3-(4-(5-chloro-2-fluorobenzyl)piperazin-1-yl)-N-cyclopropylpyrido[3,4-b]pyrazin-2-amine, 2,2,2-trifluoroacetic acid salt [Cpd 351]” are within 1.5-fold of each other in IC50: 0.049 µM for the first, 0.062 µM for the second.

First: N-cyclopropyl-3-(4-(4-fluoro-2-methylbenzyl)piperazin-1-yl)quinoxalin-2-amine, 2,2,2-trifluoroacetic acid salt [Cpd 157]
Second: 3-(4-(2,4-difluorobenzyl)piperidin-1-yl)-2-((2-methoxyethyl)amino)quinoxaline-6-carbonitrile [Cpd 518]
The IC50 of the first is 4400-fold higher: 105 µM for the first, 0.024 µM for the second.

Same assay, conditions: compounds of Compound Table 2; inhibition of constitutive cAMP activity of GPR6 expressed in CHO-K1 cells; approximate IC50; read-out: IC50

`N#Cc1ccc2nc(NC3CC3)c(C3CCN(Cc4cc(Cl)ccc4Cl)CC3)nc2c1` [Compound Table 2: Cpd 3, 2-(cyclopropylamino)-3-(1-(2,5-dichlorobenzyl)piperidin-4-yl)quinoxaline-6-carbonitrile, 2,2,2-trifluoroacetic acid salt] gave an IC50 of 0.84 µM.
